Experimental data as given in US12065445B2, “CDK2 inhibitors and methods of using the same” (Cedilla Therapeutics, Inc., priority 2021, dated 2024).

System: Kuramochi cells labeled with mApple-H2B
Assay: IncuCyte Cell Proliferation Assay
Type: cell-based
Details: 72 h
Description: IncuCyte® assay was used to measure the effect of disclosed compounds on cell proliferation. Fluorescent microscopy images of cells were taken immediately after compound treatment and 72 hours later. Image analysis software was used to obtain cell counts as a function of compound concentration. Kuramochi cells labeled with mApple-H2B were seeded on 384-well assay-ready plates. Plates were placed in an IncuCyte® (Sartorius) and scanned at 0 and 72 hours. IncuCyte® software was used to count the number of fluorescent nuclei in each well. The fold change in cell count from 0 to 72 hours in wells treated with increasing compounds concentrations (10 pts, ½ log dilution, 20 μM top concentration) was normalized to DMSO control wells. The normalized cell counts were fit with dose response curves and a […] was calculated.

Compared with `COC[C@H]1CCCN(C(=O)[C@@H](NC(=O)[C@@H]2CN(C(=O)c3cncs3)CC23CN(C(=O)C(C)(C)C2CC2)C3)[C@@H](C)OCC2CCCCC2)C1` [I-389], `COC[C@H]1CCCN(C(=O)[C@@H](NC(=O)[C@@H]2CN(C(=O)c3cncs3)CC23CN(C(=O)C(C)(C)C2CC2)C3)[C@@H](C)OC[C@H]2CC[C@H](O)CC2)C1` [I-431] is higher in IC50: 0.5 to 5 µM for the first, over 20 µM for the second.

First: COC[C@H]1CCCN(C(=O)[C@@H](NC(=O)[C@@H]2CN(C(=O)c3cncs3)CC23CN(C(=O)[C@H]2CC2(C)C)C3)[C@@H](C)OCC2CCC3(CCC3)CC2)C1 [I-390]
Second: COC[C@H]1CCCN(C(=O)[C@@H](NC(=O)[C@@H]2CN(C(=O)c3cncs3)CC23CN(C(=O)[C@H]2CC2(C)C)C3)[C@@H](C)OC[C@H]2CC[C@H](N)CC2)C1 [I-433]
The IC50 of the first is lower: at most 0.5 µM for the first, over 20 µM for the second.

First: CNC(=O)C(NC(=O)[C@@H]1CN(C(=O)c2cnn(Cc3ccccc3)c2)CC12CN(C(=O)[C@H]1CC1(C)C)C2)c1cccc(C2CCCCC2)n1 (stereo partly drawn) [I-391]
Second: CNC(=O)C(NC(=O)[C@@H]1CN(C(=O)c2cnn(Cc3ccccc3)c2)CC12CN(C(=O)[C@H]1CC1(C)C)C2)c1ccc(C)nn1 (stereo partly drawn) [I-421]
The IC50 of the first is lower: 0.5 to 5 µM for the first, over 20 µM for the second.

`CC1(C)C[C@@H]1C(=O)N1CC2(CN(C(=O)c3cnn(Cc4ccccc4)c3)C[C@H]2C(=O)NCc2ccc(C(F)(F)F)nn2)C1` [I-392] and `Cc1ccc(CNC(=O)[C@@H]2CN(C(=O)c3cnn(Cc4ccncc4)c3)CC23CN(C(=O)[C@H]2CC2(C)C)C3)nn1` [I-418] cannot be ordered by IC50: over 20 µM for the first, over 20 µM for the second.

First: CNC(=O)[C@@H](NC(=O)[C@@H]1CN(C(=O)c2cnn(Cc3ccccc3)c2)CC12CN(C(=O)[C@H]1CC1(C)C)C2)C(C)(C)OCc1ccccc1 [I-393]
Second: C[C@@H](OCc1ccccc1)[C@H](NC(=O)[C@@H]1CN(C(=O)c2cnn(Cc3ccccc3)c2)CC12CN(C(=O)[C@H]1CC1(C)C)C2)C(=O)N(C)C [I-409]
The IC50 of the first is higher: 5 to 20 µM for the first, 0.5 to 5 µM for the second. The second is the more potent here.

`C[C@@H](OCC1CCC(F)(F)CC1)[C@H](NC(=O)C1CN(C(=O)c2cncs2)CC12CN(C(=O)[C@H]1CC1(C)C)C2)C(=O)N1CCC(OC(F)(F)F)CC1` (stereo partly drawn) [I-394] and `C[C@@H](OCC1CCC(F)(F)CC1)[C@H](NC(=O)[C@@H]1CN(C(=O)c2cncs2)CC12CN(C(=O)[C@H]1CC1(C)C)C2)C(=O)N1CCC(CO)CC1` [I-397] cannot be ordered by IC50: at most 0.5 µM for the first, 0.5 to 5 µM for the second.

`C[C@@H](OC(C)(C)C1CCCCC1)[C@H](NC(=O)[C@@H]1CN(C(=O)c2cncs2)CC12CN(C(=O)[C@H]1CC1(C)C)C2)C(=O)N1CCCCC1` [I-395] and `C[C@@H](OCC12CCC(CC1)OC2)[C@H](NC(=O)[C@@H]1CN(C(=O)c2cncs2)CC12CN(C(=O)[C@H]1CC1(C)C)C2)C(=O)N1CCC(C)(C)CC1` [I-452] cannot be ordered by IC50: 0.5 to 5 µM for the first, at most 0.5 µM for the second.

First: CNC(=O)[C@@H](NC(=O)[C@@H]1CN(C(=O)c2cnn(Cc3ccccc3)c2)CC12CN(C(=O)[C@H]1CC1(C)C)C2)C1(OCC2CCCCC2)CC1 [I-396]
Second: CNC(=O)[C@@H](NC(=O)[C@@H]1CN(C(=O)c2cnn(Cc3ccccc3)c2)CC12CN(C(=O)[C@H]1CC1(C)C)C2)[C@@H](C)OC[C@H]1CC[C@H](O)CC1 [I-413]
The IC50 of the first is lower: 0.5 to 5 µM for the first, over 20 µM for the second.

`C[C@@H](OCc1ccc(Cl)cc1)[C@@H](CO)NC(=O)[C@@H]1CN(C(=O)c2cncs2)CC12CN(C(=O)[C@H]1CC1(C)C)C2` [I-404] and `C[C@@H](OCC1CC(F)(F)C1)[C@@H](CO)NC(=O)[C@@H]1CN(C(=O)c2cncs2)CC12CN(C(=O)[C@H]1CC1(C)C)C2` [I-412] cannot be ordered by IC50: over 20 µM for the first, over 20 µM for the second.

`Cc1ccc(CNC(=O)[C@@H]2CN(C(=O)c3cnc(Cc4ccccc4)s3)CC23CN(C(=O)[C@H]2CC2(C)C)C3)nn1` [I-405] and `Cc1ccc(CNC(=O)[C@@H]2CN(C(=O)c3cnn(Cc4ccccn4)c3)CC23CN(C(=O)[C@H]2CC2(C)C)C3)nn1` [I-417] cannot be ordered by IC50: over 20 µM for the first, over 20 µM for the second.

`COC[C@H]1CCCN(C(=O)[C@@H](NC(=O)[C@@H]2CN(C(=O)c3cncs3)CC23CN(C(=O)[C@H]2CC2(C)C)C3)[C@@H](C)OC[C@H]2CC[C@@H](OC)CC2)C1` [I-408] and `COC[C@H]1CCCN(C(=O)[C@@H](NC(=O)[C@@H]2CN(C(=O)c3cncs3)CC23CN(C(=O)[C@H]2CC2(C)C)C3)[C@@H](C)OC[C@H]2CC[C@H](OC(F)(F)F)CC2)C1` [I-435] fall in the same range of IC50: 0.5 to 5 µM for the first, 0.5 to 5 µM for the second.

First: CNC(=O)C(NC(=O)[C@@H]1CN(C(=O)c2cncs2)CC12CN(C(=O)C(C)(C)C1CC1)C2)c1cccc(C2CCCCC2)n1 (stereo partly drawn) [I-410, (8S)—N-(1-(6-cyclohexylpyridin-2-yl)-2-(methylamino)-2-oxoethyl)-2-(2-cyclopropyl-2-methylpropanoyl)-6-(thiazole-5-carbonyl)-2,6-diazaspiro[3.4]octane-8-carboxamide]
Second: CNC(=O)C(NC(=O)[C@@H]1CN(C(=O)c2cncs2)CC12CN(C(=O)[C@H]1CC1(C)C)C2)c1cccc(C2CCC(F)(F)CC2)n1 (stereo partly drawn) [I-411]
The IC50 of the first is lower: 0.5 to 5 µM for the first, over 20 µM for the second.

Compared with `CC1(C)C[C@@H]1C(=O)N1CC2(CN(C(=O)c3cncs3)C[C@H]2C(=O)NCc2cccc(C3CCCCC3)n2)C1` [I-414], `CC1(C)C[C@@H]1C(=O)N1CC2(CN(C(=O)c3cncs3)C[C@H]2C(=O)NC(CO)c2cccc(C3CCC(F)(F)CC3)n2)C1` (stereo partly drawn) [I-419] is higher in IC50: 0.5 to 5 µM for the first, over 20 µM for the second. The first is the more potent here.

Compared with `C[C@@H](OCc1ccccc1)[C@H](NC(=O)[C@@H]1CN(C(=O)c2cncs2)CC12CN(C(=O)[C@H]1CC1(C)C)C2)C(=O)N(C)C` [I-416], `CNC(=O)C(NC(=O)[C@@H]1CN(C(=O)c2cncs2)CC12CN(C(=O)[C@H]1CC1(C)C)C2)c1ccc(C)nn1` (stereo partly drawn) [I-420] is higher in IC50: 5 to 20 µM for the first, over 20 µM for the second. The first is the more potent here.

`CC(C)(O)C(NC(=O)[C@@H]1CN(C(=O)c2cncs2)CC12CN(C(=O)[C@H]1CC1(C)C)C2)c1cccc(C2CCOCC2)n1` (stereo partly drawn) [I-423] and `CC(C)(O)C(NC(=O)[C@@H]1CN(C(=O)c2cnco2)CC12CN(C(=O)[C@H]1CC1(C)C)C2)c1cccc(C2CCOCC2)n1` (stereo partly drawn) [I-436] cannot be ordered by IC50: over 20 µM for the first, over 20 µM for the second.

`COC[C@H]1CCCN(C(=O)[C@@H](NC(=O)[C@@H]2CN(C(=O)c3cncs3)CC23CN(C(=O)[C@H]2CC2(C)C)C3)[C@@H](C)OC[C@H]2CC[C@H](NC(C)=O)CC2)C1` [I-434] and `C[C@@H](OCC1CCOCC1)[C@H](NC(=O)[C@@H]1CN(C(=O)c2cncs2)CC12CN(C(=O)[C@H]1CC1(C)C)C2)C(=O)N1CCC(n2ccnc2)CC1` [I-440] cannot be ordered by IC50: over 20 µM for the first, over 20 µM for the second.

First: Cc1nc(C)c(C(=O)N2C[C@@H](C(=O)NC(c3cccc(C4CCOCC4)n3)C(C)(C)O)C3(C2)CN(C(=O)[C@H]2CC2(C)C)C3)s1 (stereo partly drawn) [I-437]
Second: COC1CCN(C(=O)[C@@H](NC(=O)[C@@H]2CN(C(=O)c3sc(C)nc3C)CC23CN(C(=O)[C@H]2CC2(C)C)C3)[C@@H](C)OCC23CCC(CC2)OC3)CC1 [I-451]
The IC50 of the first is higher: over 20 µM for the first, 5 to 20 µM for the second.

`C[C@@H](OCC1CCCCC1)[C@H](NC(=O)[C@@H]1CN(C(=O)c2cnn(Cc3ccccc3)c2)CC12CN(C(=O)[C@H]1CC1(C)C)C2)C(=O)N1CCC(c2cnc[nH]2)CC1` [I-438] and `C[C@@H](OCC1CCCCC1)[C@H](NC(=O)[C@@H]1CN(C(=O)c2cnn(Cc3ccccc3)c2)CC12CN(C(=O)[C@H]1CC1(C)C)C2)C(=O)N1CCC(c2ncc[nH]2)CC1` [I-446] fall in the same range of IC50: 0.5 to 5 µM for the first, 0.5 to 5 µM for the second.

`C[C@@H](OCC1CCCCC1)[C@H](NC(=O)[C@@H]1CN(C(=O)c2cnn(Cc3ccccc3)c2)CC12CN(C(=O)[C@H]1CC1(C)C)C2)C(=O)N1CCC(n2cccn2)CC1` [I-439] and `C[C@@H](OCC1CCCCC1)[C@H](NC(=O)[C@@H]1CN(C(=O)c2cnn(Cc3ccccc3)c2)CC12CN(C(=O)[C@H]1CC1(C)C)C2)C(=O)N1CCC(c2nccs2)CC1` [I-445] cannot be ordered by IC50: at most 0.5 µM for the first, at most 0.5 µM for the second.

`C[C@@H](OCC1CCCCC1)[C@H](NC(=O)[C@@H]1CN(C(=O)c2cnn(Cc3ccccc3)c2)CC12CN(C(=O)[C@H]1CC1(C)C)C2)C(=O)N1CCC(c2cc[nH]n2)CC1` [I-443] and `C[C@@H](OCC1CCCCC1)[C@H](NC(=O)[C@@H]1CN(C(=O)c2cnn(Cc3ccccc3)c2)CC12CN(C(=O)[C@H]1CC1(C)C)C2)C(=O)N1CCC(c2nnco2)CC1` [I-449] cannot be ordered by IC50: at most 0.5 µM for the first, at most 0.5 µM for the second.

First: C[C@@H](OCC1CCC2(CCC2)CC1)[C@H](NC(=O)[C@@H]1CN(C(=O)c2cnn(Cc3ccccc3)c2)CC12CN(C(=O)[C@H]1CC1(C)C)C2)C(=O)N1CCC(c2cnc[nH]2)CC1 [I-444]
Second: C[C@@H](OCC12CCC(CC1)OC2)[C@H](NC(=O)[C@@H]1CN(C(=O)c2cncs2)CC12CN(C(=O)[C@H]1CC1(C)C)C2)C(=O)N1CCCC2(COC2)C1 [I-453]
The IC50 of the first is lower: at most 0.5 µM for the first, 5 to 20 µM for the second. The first is the more potent here.

`C[C@@H](OCC12CCC(CC1)OC2)[C@H](NC(=O)[C@@H]1CN(C(=O)c2cnco2)CC12CN(C(=O)C(C)(C)C1CC1)C2)C(C)(C)O` [I-448] and `C[C@@H](OCC12CCC(CC1)OC2)[C@H](NC(=O)[C@@H]1CN(C(=O)c2cnco2)CC12CN(C(=O)[C@H]1CC1(C)C)C2)C(C)(C)O` [I-450] cannot be ordered by IC50: over 20 µM for the first, over 20 µM for the second.

`C[C@@H](OCC12CCC(CC1)OC2)[C@H](NC(=O)[C@@H]1CN(C(=O)c2cncs2)CC12CN(C(=O)[C@H]1CC1(C)C)C2)C(=O)N1CCC(C(F)(F)F)CC1` [I-454, (S)—N-((2S,3R)-3-((2-oxabicyclo[2.2.2]octan-4-yl)methoxy)-1-oxo-1-(4-(trifluoromethyl)piperidin-1-yl)butan-2-yl)-2-((S)-2,2-dimethylcyclopropane-1-carbonyl)-6-(thiazole-5-carbonyl)-2,6-diazaspiro[3.4]octane-8-carboxamide] and `C[C@@H](OCC12CCC(CC1)OC2)[C@H](NC(=O)[C@@H]1CN(C(=O)c2cncs2)CC12CN(C(=O)[C@H]1CC1(C)C)C2)C(=O)N1CCC(OC(F)(F)F)CC1` [I-457] fall in the same range of IC50: 0.5 to 5 µM for the first, 0.5 to 5 µM for the second.

`Cc1nc(C)c(C(=O)N2C[C@@H](C(=O)N[C@H](C(=O)N3CCC(OC(F)(F)F)CC3)[C@@H](C)OCC34CCC(CC3)OC4)C3(C2)CN(C(=O)[C@H]2CC2(C)C)C3)s1` [I-455] and `Cc1nc(C)c(C(=O)N2C[C@@H](C(=O)N[C@H](C(=O)N3CCC(C(F)(F)F)CC3)[C@@H](C)OCC34CCC(CC3)OC4)C3(C2)CN(C(=O)[C@H]2CC2(C)C)C3)s1` [I-456] fall in the same range of IC50: 0.5 to 5 µM for the first, 0.5 to 5 µM for the second.
